Test results published in patent US20170306042A1, “IMMUNOGENIC MODULATION BY ENDOCRINE DEPRIVATION THERAPY IMPROVES SENSITIVITY OF TUMOR CELLS TO IMMUNE MEDIATED LYSIS” (The United States of America, as represented by the …, priority 2014, published 2017).
Entries after “also recorded” stand apart in the source; their conditions may differ.

What was measured:
[1] = tested on: LNCaP control-shRNA cells; test: CEA-specific CTL lysis assay, LNCaP control-shRNA targets; settings: 10 μM, 48 hours, E:T 30:1, P<0.05
Protocol: (§5) At specific time points, cells were harvested and counted. Equal numbers of effector target cells from all treatment were plated with respective cytotoxic T-cells.

LNCaP/AR(cs) cells [2] = test: Cell proliferation and viability, LNCaP/AR(cs); assay type: cell-based, human
[3] = tested on: LNCaP AR-shRNA (AR−, HLA-A2) cells; settings: 10 μM
[4] = tested on: castration resistant prostate cancer; settings: AFFIRM trial (Scher et al. 2012); cited from earlier work
PSA = test: RT-PCR of PSA mRNA in LNCaP cells; assay type: cell-based, human; settings: 10 μM, 48 hours, P<0.0001
[5] = tested on: LNCaP (AR+, HLA-A2) cells; test: Cell proliferation and viability by trypan blue exclusion, LNCaP; assay type: cell-based, human; settings: 10 μM
Protocol: (§1) Cells were harvested 24, 48, or 72 h after exposure, and the total number of adherent viable cells was determined by trypan blue exclusion. Viability was confirmed by 7AAD staining.

[6] = tested on: murine prostate carcinomas; settings: cited from earlier work
[7] = tested on: MDA MB 231 (ER−AR−) cells; test: CEA-specific CTL lysis assay, MDA MB 231 targets; assay type: cell-based, human; settings: 10 μM, E:T 30:1, vs vehicle
Protocol: (§2) The HLA-A2-restricted CEA-specific CTL recognizes the CEA peptide epitope […] (SEQ ID NO: 1) (CAP-1). […] The percentage of tumor lysis was calculated as follows: % tumor lysis=[(experimental cpm−spontaneous cpm)/(maximum cpm−spontaneous cpm)]×100.
(§3) OPG expression was inhibited in MDA MB 231 cells using siRNA duplexes targeting OPG sequences and control siRNA duplexes (Origene, Rockville, Md.). MDA-MB-231 cells were transfected with OPG or control siRNA according to the manufacturer's instructions. […] Forty-eight hours post siRNA transfection, the MDA MB 231 cells were also used as target cells in CEA-specific CTL and TRAIL-mediated lysis assays as described.
(§4) These cells were then used as target cells for CTL-mediated killing assays utilizing CEA-specific CTLs.

PC-3 cells = test: MUC1-specific CTL lysis assay, PC-3 targets; assay type: cell-based, human; settings: 10 μM, 48 hours, E:T 30:1, vs vehicle
Protocol: as §5

LNCaP cells [8] = test: MUC1-specific CTL lysis assay, LNCaP targets; assay type: cell-based, human; settings: 10 μM, 48 hours, E:T 30:1, vs vehicle
Protocol: as §5

prostate cancer = settings: reported clinical trials; cited from earlier work
BT549 (ER−AR+) cells = test: CEA-specific CTL lysis assay, BT549 targets; assay type: cell-based, human; settings: 10 μM, E:T 30:1, vs vehicle, P<0.01
Protocol: as §2

[9] = tested on: TRAMP-C2 mouse prostate carcinomas; settings: in vitro (Ardiani et al. 2013); cited from earlier work
LNCaP/AR(cs) cells [10] = test: CEA- or PSA-specific CD8+ T-cell killing, LNCaP/AR(cs) targets; assay type: cell-based, human
ZR75-1 (ER+AR+) cells [11] = test: Tumor cell proliferation, ZR75-1; assay type: cell-based, human; settings: 10 μM; 48 or 72 hours; P<0.05 vs vehicle
Protocol: At the indicated time points, cells were harvested and the number of viable cells was determined by trypan blue exclusion.

ZR75-1 (ER+AR+) cells [12] = test: CEA-specific CTL lysis assay, ZR75-1 targets; assay type: cell-based, human; settings: 10 μM, E:T 30:1, vs vehicle
Protocol: as §2, §4

LNCaP cells [13] = test: PSA-specific CD8+ T-cell killing, LNCaP targets; settings: 10 μM, 48 hours, E:T 30:1, P<0.01
Protocol: as §5

LNCaP cells [14] = test: CEA-specific CTL lysis assay, LNCaP targets; assay type: cell-based, human; settings: 10 μM, 48 hours, E:T 30:1, P<0.0001
Text: To evaluate the importance of DAPK1, DAPK1 siRNA was used to reduce the expression of DAPK1.

[15] = tested on: MDA MB 231 (ER−AR−) cells; test: TRAIL-mediated lysis assay, MDA MB 231 targets; assay type: cell-based, human; settings: 10 μM, 500 ng/ml KillerTRAIL, P<0.01
Protocol: as §2, §3

[16] = tested on: PC-3 (AR−, HLA-A24) cells; test: Cell proliferation and viability by trypan blue exclusion, PC-3; assay type: cell-based, human; settings: 10 μM
Protocol: as §1

[17] = tested on: MDA MB 231 (ER−AR−) cells; test: Apoptosis PCR array (90 genes) in MDA MB 231 cells; assay type: cell-based, human; settings: 24 hours, qRT-PCR
Protocol: Total RNA was isolated from the cells using the RNeasy Extraction Kit (Qiagen, Valencia, Calif.). RNA was reverse-transcribed into cDNA using the Advantage RT-for-PCR Kit (Clontech, Mountain View, Calif.). cDNA (10 ng) was used in a quantitative real-time (RT) PCR reaction using probes specific for AR (Hs00901571_m1) and GAPDH (4326317E). AR mRNA expression level was calculated as expression relative to GAPDH. […] Total RNA was isolated from the cells using the RNeasy Extraction Kit. RNA was reverse-transcribed into cDNA using the RT^2 First Strand Kit (SA Biosciences, Valencia, Calif.). Relative mRNA expression levels of 90 genes involved in apoptosis were assessed using an apoptosis PCR array (SA Biosciences) per the manufacturer's instructions. RT-PCR was performed on the 7300 Real-Time PCR System (Applied Biosystems, Carlsbad, Calif.).
OPG is a decoy receptor for receptor activator of nuclear factor kappa-B ligand (RANKL) which inhibits RANKL activation of nuclear factor kappa-B induced apoptosis.

[18] = trypan blue exclusion after 3 days of drug exposure

enzalutamide
sensitivity to CEA-specific CTL-mediated lysis [1]: significantly enhanced the sensitivity
proliferation of LNCaP/AR(cs) cells (LNCaP/AR(cs) cells [2]; 10 μM): did not inhibit the proliferation
inhibition of growth of LNCaP/AR(cs) cells (LNCaP/AR(cs) cells [2]; 30 μM): 50%
viability of LNCaP/AR(cs) cells (LNCaP/AR(cs) cells [2]; 30 μM): no effect on the cells' viability
growth of LNCaP AR-shRNA [3]: did not affect the growth
advantage in overall survival compared to placebo [4]: 4.8 month
reduction in levels of PSA mRNA (PSA): 5.5 fold
viability of LNCaP cells [5, 18]: Neither enzalutamide nor abiraterone affected the viability
growth / proliferation of LNCaP cells ([5]; vs vehicle (DMSO), P<0.01): significantly inhibited the growth
number or function of T-cells ([6]; Ardiani et al. 2013): did not alter the number or function of T-cells
MHC-I and Fas on the surface of tumor cells ([6]; murine prostate carcinomas (Ardiani et al. 2013)): up-regulated MHC-I and Fas
sensitivity to CEA-specific CTL-mediated lysis [7]: capable of increasing the sensitivity
sensitivity to MUC1-specific CTL-mediated lysis (PC-3 cells): neither enzalutamide nor abiraterone improved PC-3 cells' sensitivity; also recorded: did not improve the sensitivity
sensitivity to MUC1-specific CTL-mediated lysis (LNCaP cells [8]): significantly enhanced their sensitivity
prostate cancer patients who did not respond and continued to have rising PSA levels (prostate cancer): more than 30%
sensitivity to CEA-specific CTL-mediated lysis (BT549 (ER−AR+) cells): significantly improved their sensitivity
sensitivity to gp70-specific CTL killing [9]: improve tumor cells' sensitivity
sensitivity to T-cell killing (LNCaP/AR(cs) cells [10]; 10 μM, CEA- or PSA-specific CD8+ T-cells, P<0.01): significantly improved the cells' sensitivity
sensitivity to T-cell killing (LNCaP/AR(cs) cells [10]; 30 μM, P<0.01, no significant difference to 10 μM): significantly improved the cells' sensitivity
proliferation of ZR75-1 cells (ZR75-1 (ER+AR+) cells [11]): significantly inhibited the proliferation
sensitivity to CEA-specific CTL-mediated lysis (ZR75-1 (ER+AR+) cells [12]): significantly enhanced their sensitivity
sensitivity to PSA-specific T-cell killing (LNCaP cells [13]): significantly improved their sensitivity
sensitivity to CEA-specific CD8+ T-cell killing (LNCaP cells [14]): significantly enhanced the sensitivity
sensitivity to Trail-mediated lysis [15]: significantly improved the sensitivity
viability of PC-3 cells [16, 18]: Neither enzalutamide nor abiraterone affected the viability
proliferation of PC-3 cells ([16]; vs vehicle (DMSO)): did not inhibit the proliferation
osteoprotegerin (OPG) gene down-regulated [17]: ~25 fold
